Results: patent publication US9637469B2, “Pyridine derivative” (Teijin Pharma Limited, priority 2012, dated 2017)

The compounds below were run against T1, human URAT1 (Homo sapiens, UniProt Q96S37) (assay: Test for inhibition of uric acid transport using human URAT1-expressing cells). Settings: HEK 293 cells expressing human URAT1; 14C-labeled uric acid 25 μM; uptake 37° C. for 5 min.
T1 construct: Full-length cDNA of human URAT1 (hURAT1)
T1 sequence (Q96S37 1-553): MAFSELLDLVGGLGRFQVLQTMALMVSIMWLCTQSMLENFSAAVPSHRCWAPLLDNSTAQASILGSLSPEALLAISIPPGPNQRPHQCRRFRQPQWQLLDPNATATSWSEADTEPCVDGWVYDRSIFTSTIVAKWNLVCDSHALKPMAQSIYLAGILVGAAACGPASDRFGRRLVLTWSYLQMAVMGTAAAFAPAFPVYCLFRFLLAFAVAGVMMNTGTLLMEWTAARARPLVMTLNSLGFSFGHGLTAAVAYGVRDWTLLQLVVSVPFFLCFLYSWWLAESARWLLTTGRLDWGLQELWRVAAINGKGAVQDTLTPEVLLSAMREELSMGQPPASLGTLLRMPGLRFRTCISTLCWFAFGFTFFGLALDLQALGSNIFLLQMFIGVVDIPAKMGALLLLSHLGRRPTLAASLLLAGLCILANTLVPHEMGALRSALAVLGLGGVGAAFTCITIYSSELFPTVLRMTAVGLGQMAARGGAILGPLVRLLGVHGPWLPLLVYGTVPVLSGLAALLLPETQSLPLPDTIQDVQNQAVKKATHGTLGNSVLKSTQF
Type: cell-based
Protocol: (1) Preparation of the Test Compound
The test compound was dissolved in DMSO (produced by Sigma) to a concentration of 20 mM and was subsequently used by diluting to desired concentrations.
(2) Test for Inhibition of Uric Acid Transport Using Human URAT1-Expressing Cells;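 note: three stars up to 0.2 µM two stars 0.2-2 µM one star 2-20 µM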
Full-length cDNA of human URAT1 (hURAT1) (produced by OriGene Technologies, Inc., NCBI Reference Sequence: NM 144585) was subcloned into an expression vector, pCMV6-Kan/Neo (produced by OriGene Technologies, Inc.), and hURAT1 gene was transfected into human embryonic kidney-derived cells (HEK 293 cells) by liposome method using Lipofectamine 2000 (produced by Invitrogen Corporation), whereupon HEK 293 cells expressing human URAT1 gene were screened by its Geneticin resistance. By a method similar to the following method, functional expression of human URAT1 gene was confirmed by using transport of ^14C-labeled uric acid into the cells as an index.
The HEK 293 cells expressing human URAT1 were seeded in a 24-well cell culture dish to a density of 3×10^5 cells/mL/well and were cultured in Dulbecco's modified Eagle's medium (D-MEM medium) containing 10% fetal bovine serum at 37° C. for 2 days. Thereafter, the following test for inhibition of uric acid transport was performed.
After the medium was removed by aspiration from each well, the medium was replaced with a solution obtained by substituting NaCl in Hank's Balanced Salt Solution (HBSS) with Na gluconate (hereinafter, HBSS/Na-gluconate) and the cells were preincubated at 37° C. for about 10 minutes. HBSS/Na-gluconate was removed by aspiration and a ^14C-uric acid solution that was warmed at 37° C. in advance containing various concentrations of the Example compound described in (1) and a radioactive ligand (^14C-labeled uric acid; final concentration 25 μM) was added and an uptake reaction was carried out by incubating at 37° C. for 5 min. After the incubation, ^14C-labeled uric acid solution was removed by aspiration and the cells were washed three times with ice-cold HBSS. The HEK 293 cells expressing human URAT1 were lysed in 0.2 mol/L aqueous NaOH (hereafter, the cell sample) and the cell samples were collected. The cell sample and a liquid scintillation liquid, ULTIMA GOLD (produced by PerkinElmer, Inc.) were mixed and the radioactivity was measured by a liquid scintillation counter (Beckman Coulter, Inc.).
The uric acid transport rate of the Example compound at each concentration (% of control uptake) was calculated relative to the radioactivity (radioactivity in human URAT1 expressing HEK 293 cells without addition of the Example compound (DMSO addition)) showing URAT1-specific uric acid transport as 100%, and the concentration (IC50) of the Example compound at which the uric acid transport rate is inhibited by 50% was determined. In addition, the symbols (*, **, and ***) in the table represent the following inhibitory activity values: • IC50≦_ 0.2 μM: *** • 0.2 μM<IC50≦2 μM: ** • 2 μM<IC50≦20 μM: *

Inhibitory Activity (IC50 of uric acid transport inhibition)	SMILES
* *	CCOC(=O)c1c(C)nc(-c2cccnc2)n1Cc1cccc2ccccc12 [Compound A3, ethyl 4-methyl-1-(naphthalen-1-ylmethyl)-2-(pyridin-3-yl)-1H-imidazole-5-carboxylate]
* *	Cc1nc(-c2cccnc2)n(Cc2csc3cccc(C(F)(F)F)c23)c1C(=O)O [Compound A6, 4-methyl-2-(pyridin-3-yl)-1-((4-(trifluoromethyl)benzo[b]thiophen-3-yl)-methyl)-1H-imidazole-5-carboxylic acid]
* *	Cc1nc(-c2cccnc2)n(Cc2csc3cccc(Br)c23)c1C(=O)O [Compound A8, 1-((4-bromobenzo[b]thiophen-3-yl)methyl)-4-methyl-2-(pyridin-3-yl)-1H-imidazole-5-carboxylic acid]
* *	O=C(O)c1c(Cl)nc(-c2cccnc2)n1Cc1cccc2ccccc12 [Compound A9, 4-chloro-1-(napthalen-1-ylmethyl)-2-(pyridin-3-yl)-1H-imidazole-5-carboxylic acid]
* *	CCc1nc(-c2cccnc2)n(Cc2cccc3ccccc23)c1C(=O)O [Compound A10, 4-ethyl-1-(naphthalen-1-ylmethyl)-2-(pyridin-3-yl)-1H-imidazole-5-carboxylic acid]
* *	O=C(O)c1c(C2CC2)nc(-c2cccnc2)n1Cc1cccc2ccccc12 [Compound A11, 4-cyclopropyl-1-(napthalen-1-ylmethyl)-2-(pyridin-3-yl)-1H-imidazole-5-carboxylic acid]
* *	Cc1nc(-c2cccnc2)n(Cc2ccc(C)c3ccccc23)c1C(=O)O [Compound A17, 4-methyl-1-((4-methylnaphthalen-1-yl)methyl)-2-(pyridin-3-yl)-1H-imidazole-5-carboxylic acid]
* * *	Cc1ccc(Cn2c(-c3cccnc3)nc(C3CC3)c2C(=O)O)c2ccccc12 [Compound A18, 4-cyclopropyl-1-((4-methylnaphthalen-1-yl)methyl)-2-(pyridin-3-yl)-1H-imidazole-5-carboxylic acid]
* *	O=C(O)c1c(C(F)(F)F)nc(-c2cccnc2)n1Cc1csc2ccccc12 [Compound A22, 1-(benzo[b]thiophen-3-ylmethyl)-2-(pyridin-3-yl)-4-(trifluoromethyl)-1H-imidazole-5-carboxylic acid]
* *	Cc1ccc(Cn2c(-c3cccnc3)nc(Cl)c2C(=O)O)c2ccccc12 [Compound A23, 4-chloro-1-((4-methylnaphthalen-1-yl)methyl)-2-(pyridin-3-yl)-1H-imidazole-5-carboxylic acid]
* *	CC(C)c1nc(-c2cccnc2)n(Cc2cccc3ccccc23)c1C(=O)O [Compound A24, 4-isopropyl-1-(naphthalen-1-ylmethyl)-2-(pyridin-3-yl)-1H-imidazole-5-carboxylic acid]
* * *	Cc1ccc(Cn2c(-c3cccnc3)nc(C(C)C)c2C(=O)O)c2ccccc12 [Compound A25, 4-isopropyl-1-((4-methylnaphthalen-1-yl)methyl)-2-(pyridin-3-yl)-1H-imidazole-5-carboxylic acid]
* *	O=C(O)c1c(C(F)(F)F)nc(-c2cccnc2)n1Cc1csc2cccc(Cl)c12 [Compound A27, 1-((4-chlorobenzo[b]thiophen-3-yl)methyl)-2-(pyridin-3-yl)-4-(trifluoromethyl)-1H-imidazole-5-carboxylic acid]
* *	O=C(O)c1c(C(F)(F)F)nc(-c2cccnc2)n1Cc1csc2cccc(Br)c12 [Compound A31, 1-((4-bromobenzo[b]thiophen-3-yl)methyl)-2-(pyridin-3-yl)-4-(trifluoromethyl)-1H-imidazole-5-carboxylic acid]
* *	O=C(O)c1c(C2CC2)nc(-c2cccnc2)n1Cc1csc2cccc(Cl)c12 [Compound A33, 1-((4-chlorobenzo[b]thiophen-3-yl)methyl)-4-cyclopropyl-2-(pyridin-3-yl)-1H-imidazole-5-carboxylic acid]
* *	O=C(O)c1c(C2CC2)nc(-c2cccnc2)n1Cc1csc2cccc(Br)c12 [Compound A34, 1-((4-bromobenzo[b]thiophen-3-yl)methyl)-4-cyclopropyl-2-(pyridin-3-yl)-1H-imidazole-5-carboxylic acid]
* *	O=C(O)c1c(C2CC2)nc(-c2cccnc2)n1Cc1csc2cccc(C(F)(F)F)c12 [Compound A35, 4-cyclopropyl-2-(pyridin-3-yl)-1-((4-(trifluoromethyl)benzo[b]thiophen-3-yl)methyl)-1H-imidazole-5-carboxylic acid]
* *	O=C(O)c1c(C2CC2)nc(-c2cccnc2)n1Cc1csc2ccccc12 [Compound A36, 1-(benzo[b]thiophen-3-ylmethyl)-4-cyclopropyl-2-(pyridin-3-yl)-1H-imidazole-5-carboxylic acid]
* * *	CC(C)c1nc(-c2cccnc2)n(Cc2csc3cccc(Cl)c23)c1C(=O)O [Compound A37, 1-((4-chlorobenzo[b]thiophen-3-yl)methyl)-4-isopropyl-2-(pyridin-3-yl)-1H-imidazole-5-carboxylic acid]
* * *	CC(C)c1nc(-c2cccnc2)n(Cc2csc3cccc(Br)c23)c1C(=O)O [Compound A38, 1-((4-bromobenzo[b]thiophen-3-yl)methyl)-4-isopropyl-2-(pyridin-3-yl)-1H-imidazole-5-carboxylic acid]
* * *	CC(C)c1nc(-c2cccnc2)n(Cc2csc3cccc(C(F)(F)F)c23)c1C(=O)O [Compound A39, 4-isopropyl-2-(pyridin-3-yl)-1-((4-(trifluoromethyl)benzo[b]thiophen-3-yl)methyl)-1H-imidazole-5-carboxylic acid]
* *	CC(C)c1nc(-c2cccnc2)n(Cc2csc3ccccc23)c1C(=O)O [Compound A40, 1-(benzo[b]thiophen-3-ylmethyl)-4-isopropyl-2-(pyridin-3-yl)-1H-imidazole-5-carboxylic acid]

Same assay, conditions: HEK 293 cells expressing human URAT1; 14C-labeled uric acid 25 μM; uptake 37° C. for 5 min; read-out: Inhibitory Activity (IC50 of uric acid transport inhibition)

IC50 [µM]	SMILES
2 to 20	Cc1ccc2ccccc2c1Cn1c(-c2cccnc2)nc(C)c1C(=O)O [Compound A4]
2 to 20	Cc1nc(-c2cccnc2)n(Cc2csc3cccc(C)c23)c1C(=O)O [Compound A5]
2 to 20	O=C(O)c1cnc(-c2cccnc2)n1Cc1cccc2ccccc12 [Compound A12]
2 to 20	Cc1nc(-c2cccnc2)n(Cc2csc3ccccc23)c1C(=O)O [Compound A16]
2 to 20	O=C(O)c1c(C(F)(F)F)nc(-c2cccnc2)n1Cc1cccc2cccc(Br)c12 [Compound A28]
2 to 20	Cc1cccc2cccc(Cn3c(-c4cccnc4)nc(C(F)(F)F)c3C(=O)O)c12 [Compound A30]
2 to 20	O=C(O)c1c(C(F)(F)F)nc(-c2cccnc2)n1Cc1csc2cccc(C(F)(F)F)c12 [Compound A32]
